Patent publication US20070111199A1, “Compounds and method of identifying, synthesizing, optimizing and profiling protein modulators” (priority 2005, published 2007)

tested on: P210 T315I mutant kinase domain (120 Kd); assay: cell-free purified protein kinase autophosphorylation assay, T315I kinase domain; assay type: biochemical, human; details: 20 μM cell-free, FIGS. 17 and 18
Experimental: Each of the compounds was also tested in a standard cell free protein kinase autophosphorylation assay at a concentration of 20 μM as shown in FIG. 18.

For `O=C(Nc1cccc(C(F)(F)F)c1)c1cccc(/C=N/Nc2ncc(F)c(N3CCOCC3)n2)n1` [Example C2-122], the “relative potency, cell-free assay vs phenoresponse-based cellular assay” value was “more potent in the cell-free assay than in the phenoresponse-based cellular system”.

molecular target: T1, Ba/F3 cells overexpressing the p210^Bcr-Abl-T315I theramutein (Homo sapiens, UniProt P00519, T315I, cells depend on it); assay: phenoresponse-based cellular assay (cell count/viability), Ba/F3 T315I test cells; set-up: species or system murine; details: FIG. 17
T1 construct: fused on or other part: P11274 (Breakpoint cluster region protein)

`O=C(Nc1cccc(C(F)(F)F)c1)c1cccc(/C=N/Nc2ncc(F)c(N3CCOCC3)n2)n1` [Example C2-122] was tested, and the “relative potency in the phenoresponse-based assay” value was “less potent than several of the other compounds tested”.

same assay, conditions: T315I vs control Ba/F3 cells, FIG. 1

`Oc1c(Cl)cc(Br)cc1/C=N\Nc1ncc(F)c(N2CCOCC2)n1` [Example C2] was tested, and the “concentration showing the largest specificity gap within the dose-response series” value was 500 nM.

same assay, conditions: read-out: T315I (IC50 activity category, growth inhibition by 50%); Ba/F3 T315I cell line

Compared with `Oc1ccccc1/C=N/Nc1ncc(F)c(N2CCOCC2)n1`, `Cc1ccccc1/C=N/Nc1ncc(F)c(N2CCOCC2)n1` is higher in GI50: < 10000 nM for the first, > 10000 nM for the second.

Compared with `Fc1cnc(N/N=C/c2ccccn2)nc1N1CCOCC1`, `Fc1cnc(N/N=C/c2ccccc2)nc1N1CCOCC1` is higher in GI50: < 1000 nM for the first, > 10000 nM for the second.

First: Oc1ccc(Br)cc1/C=N/Nc1ncc(F)c(N2CCOCC2)n1
Second: Cc1ccc(/C=N/Nc2ncc(F)c(N3CCOCC3)n2)cc1
The GI50 of the first is lower: < 1000 nM for the first, > 10000 nM for the second.

`O=C(Nc1cccc(C(F)(F)F)c1)c1cc(Cl)c(O)c(/C=N\Nc2ncc(F)c(N3CCOCC3)n2)c1` and `O=C(Nc1cccc(C(F)(F)F)c1)c1ccc(/C=N/Nc2ncc(F)c(N3CCOCC3)n2)nc1` cannot be ordered by GI50: < 1000 nM for the first, < 1000 nM for the second.

Compared with `Fc1cnc(N/N=C/c2ccc(-c3cccc(C(F)(F)F)c3)cn2)nc1N1CCOCC1`, `O=C(Nc1cccc(C(F)(F)F)c1)c1cccc(/C=N/Nc2ncc(F)c(N3CCOCC3)n2)n1` [drawing 209] is higher in GI50: < 1000 nM for the first, > 10000 nM for the second.

`Cc1cccc(Cl)c1NC(=O)C/C=N/Nc1ncc(F)c(N2CCOCC2)n1` and `Cc1cc(Nc2cccc(C(F)(F)F)c2)ccc1/C=N/Nc1ncc(F)c(N2CCOCC2)n1` cannot be ordered by GI50: > 10000 nM for the first, > 10000 nM for the second.

Compared with `Fc1cnc(N/N=C/c2ccc(Nc3ccc(N4CCOCC4)cc3)cn2)nc1N1CCOCC1`, `CC(C(=O)O)c1ccc(Nc2ccc(/C=N/Nc3ncc(F)c(N4CCOCC4)n3)nc2)cc1` (stereo not shown) is higher in GI50: < 1000 nM for the first, > 10000 nM for the second.

`Fc1cnc(N/N=C/c2ccc(Nc3ccc(-c4ccccn4)c(Cl)c3)cn2)nc1N1CCOCC1` and `Fc1cnc(N/N=C/c2ccc(Nc3cccc(-n4ccnc4)c3)cn2)nc1N1CCOCC1` cannot be ordered by GI50: < 1000 nM for the first, < 1000 nM for the second.

`Cc1cc(Nc2ccc(/C=N/Nc3ncc(F)c(N4CCOCC4)n3)nc2)cc(N2CCNCC2)c1` and `CN(C)c1cc(O)cc(Nc2ccc(/C=N/Nc3ncc(F)c(N4CCOCC4)n3)nc2)c1` cannot be ordered by GI50: < 1000 nM for the first, < 1000 nM for the second.

`O=C(NNc1ncc(F)c(N2CCOCC2)n1)c1ccc(Nc2cccc(C(F)(F)F)c2)cn1` and `Oc1cccc(Nc2cccc(Nc3ccc(/C=N/Nc4ncc(F)c(N5CCOCC5)n4)nc3)c2)c1` cannot be ordered by GI50: < 1000 nM for the first, < 1000 nM for the second.

`Fc1cnc(N/N=C/c2ccc(Nc3cccc(C(F)(F)F)c3)cn2)nc1-c1cncc(-c2ccccc2)c1` and `Fc1cnc(N/N=C/c2ccc(Nc3cccc(C(F)(F)F)c3)cn2)nc1-c1cncc(C2CC2)c1` cannot be ordered by GI50: < 1000 nM for the first, < 10000 nM for the second.
